For 5 compounds, IC50 results are on record in patent publication US9309199B2, “Inhibitors of catechol O-methyl transferase and their use in the treatment of psychotic disorders” (Merck Sharp & Dohme Corp., priority 2010, dated 2016).

The structures appear in SMILES notation.

The target in this test is T1, MB-COMT (Homo sapiens, UniProt P21964).
T1 construct: 6xHis or 10xHis (C)
T1 sequence (P21964 1-271): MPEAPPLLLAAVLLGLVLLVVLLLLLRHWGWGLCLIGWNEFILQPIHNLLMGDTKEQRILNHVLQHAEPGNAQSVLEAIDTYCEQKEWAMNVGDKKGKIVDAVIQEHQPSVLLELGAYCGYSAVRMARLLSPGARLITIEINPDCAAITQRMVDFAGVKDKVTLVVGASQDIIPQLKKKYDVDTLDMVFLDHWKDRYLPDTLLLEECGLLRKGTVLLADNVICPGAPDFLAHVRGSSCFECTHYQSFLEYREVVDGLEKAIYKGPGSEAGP
The experiment in a line: COMT inhibition, esculetin fluorescence or fluorescence polarization assay (MB-COMT). In kind it is biochemical. The following applies: purified human COMT Val158 variant, membrane-bound. The source says: The activity of the compounds in accordance with the present invention as COMT inhibitors may be readily determined without undue experimentation using a fluorescence or fluorescence polarization (FP) methodology that is well known in the art (Kurkela M et al., Anal Biochem (331) 2004, 198-200 and Graves, T L et al., Anal Biochem (373) 2008, 296-306).
The fluorescence assay was based on methylation of a substrate (6,7-dihydroxycoumarin or ‘esculetin’) by COMT to produce a highly fluorescent product (7-hydroxy-6-methoxycoumarin or scopoletin'). […] A 10 mM compound stock in DMSO was used to prepare 10 point 3-fold dilution series and 1 uL of appropriate dilution was plated into assay wells (black 96 well round bottom polystyrene plates from Costar; catalog #3792). […] The formation of product (scopoletin) was monitored over time by fluorescence (excitation 340 nm, emission 460 nm, no lag, 100 μs integration time, 5 flashes, top read) using a Tecan Safire^2 plate reader.
Background: Fluorescence polarisation rises when a labelled molecule tumbles more slowly, as on binding a larger partner.
With `Cn1cc(-c2ccc3ccccc3c2)cc(O)c1=O` [Compound #1, 3-hydroxy-1-methyl-5-naphthalen-2-ylpyridin-2(1H)-one], the IC50 (commonly the concentration that inhibits the measured activity by half) came out at 179 nM.

`O=c1[nH]cc(-c2ccc(Cl)c(C(F)(F)F)c2)cc1O` [Compound #2, 5-[4-chloro-3-(trifluoromethyl)-phenyl]-3-hydroxypyridin-2(1H)-one] yielded an IC50 of 31 nM.

`N#Cc1cccc(-c2c[nH]c(=O)c(O)c2)c1` [Compound #8, 3-(5-hydroxy-6-oxo-1,6-dihydropyridin-3-yl)benzonitrile] came in with a concentration for half-maximal inhibition (IC50) of 197 nM.

In turn, `Cn1cc(-c2ccc(Cl)cc2Cl)cc(O)c1=O` [Example 1, 5-(2,4-Dichloro-phenyl)-3-hydroxy-1-methyl-1H-pyridin-2-one] showed a half-maximal inhibitory concentration (IC50) of 392 nM.

`Cn1cc(-c2cccc(-c3ccccc3)c2)cc(O)c1=O` [Example 4, 5-Biphenyl-3-yl-3-hydroxy-1-methylpyridin-2(1H)-one]: the IC50 was 118 nM.
